# Source: PubChem BioAssay (NCI)
#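 Protocol summary: plate cells (96-well), add compound at 5 concentrations, incubate 48 h, interpolate endpoints linearly. GI50 marks 50% less growth. Definition used: TGI = concentration required for complete inhibition of growth.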
# Assays:
# Assay in all cases: DTP human tumour cell line panel, 48 h
# LOX IMVI melanoma = tested on: LOX IMVI melanoma
# SN12C renal = tested on: SN12C renal
# TK-10 renal = tested on: TK-10 renal
# SNB-19 CNS = tested on: SNB-19 CNS
# NCI-H226 lung = tested on: NCI-H226 lung
# T-47D breast = tested on: T-47D breast
# RPMI-8226 leukemia = tested on: RPMI-8226 leukemia
# RXF 393 renal = tested on: RXF 393 renal
# U251 CNS = tested on: U251 CNS
# 786-0 renal = tested on: 786-0 renal
# OVCAR-8 ovarian = tested on: OVCAR-8 ovarian
SMILES,TGI (LOX IMVI melanoma) [µM],TGI (SN12C renal) [µM],TGI (TK-10 renal) [µM],TGI (SNB-19 CNS) [µM],TGI (NCI-H226 lung) [µM],TGI (T-47D breast) [µM],TGI (RPMI-8226 leukemia) [µM],TGI (RXF 393 renal) [µM],TGI (U251 CNS) [µM],TGI (786-0 renal) [µM],TGI (OVCAR-8 ovarian) [µM],GI50 (SN12C renal) [µM],GI50 (TK-10 renal) [µM],GI50 (NCI-H226 lung) [µM],GI50 (RXF 393 renal) [µM]
CN(CCc1ccc(N)cc1)[C@H]1CCCC[C@H]1N1CCCC1,> 100,> 100,> 100,> 100,> 100,> 100,> 100,> 100,> 100,> 100,> 100,,,,
C=CC[C@H](C)CCC(=O)N1[C@H]2CC3CC[C@@]2(CS1(=O)=O)C3(C)C,83,> 100,> 100,> 100,> 100,> 100,> 100,> 100,> 100,> 100,> 100,,,,
CCN(CC)C(=S)SS(=O)(=O)c1ccc([N+](=O)[O-])cc1,33.8,> 100,> 100,> 100,> 100,> 100,48.8,32.1,36.7,32.4,42.5,26.9,43.1,83.8,16
Cn1c(-c2cccs2)cc(-c2cccs2)c1-c1ccsc1,> 100,> 100,> 100,> 100,> 100,> 100,> 100,> 100,> 100,> 100,> 100,,,,
Cc1ccc2c(n1)C(=O)c1ccccc1C2=O,53.1,> 88.2,> 100,> 87.9,> 100,> 85,> 95.8,87.2,97.7,> 100,74.8,,,,
C(=C\C(SCc1ccccc1)SCc1ccccc1)/c1ccccc1,> 10,> 10,> 10,> 10,> 10,> 10,> 10,> 10,> 10,> 10,> 10,,,,
Nc1nc(Cl)cc(Nc2cc(Cl)cc(Cl)c2)n1,32.3,40.7,45,47.5,40.8,98.9,66.3,38.3,38.4,33.7,28.3,,,,
CC(=O)OCC1=C(C)C(OC(=O)C(OC(C)=O)[C@@H](NC(=O)c2ccccc2)c2ccccc2)CCC1(C)C (some centres not stated),> 100,> 100,> 100,> 100,> 100,> 100,> 100,> 100,> 100,> 100,> 100,,,,
O=C(N/N=C\c1ccc2ccccc2c1)Nc1ccc([N+](=O)[O-])cc1,> 100,> 59.8,> 55.9,> 100,> 100,> 59,> 100,> 79.2,> 100,> 62.8,> 66.1,,,,
Cc1cc2c(c(C=NCc3ccccc3)c1)OC1(C=C2)Oc2ccccc2C(=O)N1C (configuration not stated),34.5,78,79.7,> 100,42.9,45.9,50.4,55.9,80.3,> 100,35.6,,,,
C1=C\CCCCN2C[C@H]3CCCC/C=C\CCCCN4CC[C@@H]([C@H](CCCCCC/1)C4)[C@H](C3)C2,3.22,22.9,5.8,5.3,37,4.6,3.56,2.99,3.41,3.16,7.74,,,,
COCCOCCOC1=C(Cl)C(=O)c2c(O)ccc(O)c2C1=O,4.59,3.7,3.25,27.1,35.4,6.64,3.07,2.99,17.4,2.61,5.99,,,,
CCC(=O)O[C@H]1CC[C@H]2[C@@H]3CCC4=C/C(=N/NC(=O)c5cccc6c(=O)c7ccccc7[nH]c56)CC[C@]4(C)[C@H]3CC[C@]12C,> 25,> 25,> 25,> 25,> 25,> 25,> 25,> 25,> 25,10.3,> 25,,,,
Cn1c2ccccc2c(=NNc2ccc(C(=O)O)cc2)c2ccccc21,24.1,75.3,62.4,> 100,54,58.9,53.1,38,41,84.4,33.5,,,,
CC12Cc3cc4c(cc3C1(c1ccc([N+](=O)[O-])cc1)OCCO2)OCO4 (configuration not stated),> 100,> 100,> 100,73.2,86.7,> 100,> 100,51.6,> 100,> 100,64,,,,
OC1COC(n2c3ccc(Br)cc3c3ccc4c5ccccc5[nH]c4c32)C(O)C1O (configuration not stated),10.4,16,13.9,28.2,30.3,20.1,15.8,7.37,32.1,17.8,15.8,,,,
C=CC[C@H]1[C@H](O[Si](C)(C)C(C)(C)C)C=CC(=O)[C@@H]1CC(=O)N(Cc1ccccc1)Cc1ccccc1,26.9,90.4,85.6,> 100,46.7,44.2,> 100,27.4,> 100,84.9,> 100,,,,
COc1cccc(NC(=O)CC(=O)N2N=C(C)C(N=Nc3ccc(S(=O)(=O)c4ccc(N=NC5C(=O)N(C(=O)CC(=O)Nc6cccc(OC)c6)N=C5C)cc4)cc3)C2=O)c1 (configuration not stated),> 100,> 100,> 100,> 100,> 100,> 100,> 100,> 100,> 100,> 100,> 100,,,,
O=[N+]([O-])c1ccc2nc(/C=C(\O)c3ccc(F)cc3)c(/C=C(\O)c3ccc(F)cc3)nc2c1,> 100,> 100,34.2,> 100,89,> 100,> 100,40.7,70.5,39.7,> 100,,,,
CC[C@@H](/C=C\CCC1(C[C@H](O)CCC=C(C)C)OCCO1)O[Si](C(C)C)(C(C)C)C(C)C,38.8,32.8,39.3,33.8,35.9,42.6,42.7,33.8,31.1,31.4,38,,,,
COC(=O)CCC12CCC(O1)c1ccccc12 (configuration not stated),> 100,> 100,> 100,> 100,> 100,> 100,> 100,> 100,> 100,> 100,> 100,,,,
COC(=O)c1c(C)cccc1/C=C1\Cc2cc(C)cc(C)c2C1=O,> 100,> 100,73,> 100,> 100,> 100,> 100,58.5,48.2,> 100,> 100,,,,
c1cc2c(c(-c3c4ccccc4nc4ccccc34)c1)CC1(CC2)OCCO1,> 100,> 100,> 100,> 100,> 100,> 100,> 100,> 100,> 100,> 100,> 100,,,,
Cc1nnc2n1-c1ccccc1C(=S)N1CSCC21 (configuration not stated),> 100,> 100,> 100,> 100,> 100,> 100,> 100,> 100,> 100,> 100,> 100,,,,
CC1(C)CC(=O)c2c(nc3ccc4ccccc4c3c2-c2ccc(NC(=O)CCC(=O)Nc3ccc(-c4c5c(nc6ccc7ccccc7c46)CC(C)(C)CC5=O)cc3)cc2)C1,> 100,> 100,> 100,> 100,> 100,> 100,> 100,> 100,> 100,> 100,> 100,,,,
Brc1ccc2[nH]cc(-c3nc(-c4c[nH]c5ccccc45)cs3)c2c1,4.68,13.9,10.5,12.2,8.13,31.7,> 20.7,16,8.38,8.55,20.9,,,,
CCCCOC(=O)C(O)Cc1ccoc1 (configuration not stated),> 100,> 100,> 100,> 100,> 100,> 100,> 100,> 100,> 100,> 100,> 100,,,,
Cc1cccc2c1NC(=S)[C@@H]1CCCN1C2=O,> 100,> 100,> 100,> 100,> 100,> 100,> 100,> 100,> 100,> 100,> 100,,,,
